In ChEMBL document CHEMBL1208749 (2010):

These compounds were tested on 3T3-L1 (assay: Glucose uptake enhancing activity in insulin-stimulated mouse 3T3L1 cells at 10 uM after 4 days by FLIPR based 2-DG uptake assay relative to control).
Format: functional

| Compound | fold change (FC) |
| --- | --- |
| O=c1c(-c2ccc(O)cc2)coc2cc(O)c([C@H]3O[C@@H](CO)[C@H](O)[C@@H](O)[C@@H]3O)c(O)c12 | 1.5 |
| O=c1c(-c2ccc(O[C@@H]3O[C@H](CO)[C@@H](O)[C@H](O)[C@H]3O)cc2)coc2cc(O)ccc12 | 1.15 |
| O=c1c(-c2ccc(O)cc2)coc2c([C@@H]3O[C@H](CO)[C@@H](O)[C@H](O)[C@H]3O)c(O)ccc12 [PUERARIN] | 1.5 |
| O=c1c(-c2ccc(O)cc2)coc2cc(O)ccc12 [DAIDZEIN] | 1.5 |
| O=c1cc(-c2ccc(O)cc2)oc2c([C@@H]3O[C@H](CO)[C@@H](O)[C@H](O)[C@H]3O)c(O)cc(O)c12 | 1.1 |
| O=C1c2c(O)cc(O)c([C@@H]3O[C@H](CO)[C@@H](O)[C@H](O)[C@H]3O)c2OCC1c1ccc(O)cc1 (stereo partly drawn) | 1.1 |
| O=c1c(-c2ccc(O)cc2)coc2cc(O[C@@H]3O[C@H](CO)[C@@H](O)[C@H](O)[C@H]3O)ccc12 [DAIDZIN] | 1.15 |
| O=c1c(-c2ccc(O)cc2)coc2c(CC(O)CO)c(O)ccc12 (stereo not drawn) | 1.5 |
